Tested on: BJ skin fibroblasts and primary melanocytes
Assay: Cell toxicity studies (CellTiter-Glo, 72 h)
Type: cell-based
Settings: skin fibroblast and melanocyte viability
Method: We also tested representative compounds from each scaffold for effects on skin fibroblast and melanocyte viability to ascertain cytotoxicity towards various skin cell types.
Test compounds were solubilized in 100% DMSO and added to polypropylene 384 well plates (Greiner cat# 781280). The 1250 of BJ skin fibroblasts (ATCC CRL-2522) and primary melanocytes (ATCC PCS-200-013) were plated in 384 well plates in 8 µL of serum-free media […]. Test compounds and pharmacological assay control (lapatinib) were prepared as 10-point, 1:3 serial dilutions starting at 10 mM, then added to the cells using the pin tool mounted on the Integra 384. Plates were incubated for 72 h at 37 °C, 5% CO2 and 95% relative humidity. […] Luminescence was recorded using a Biotek Synergy H1 multimode microplate reader. Viability was expressed as a percentage relative to wells containing media only (0%) and wells containing cells treated with DMSO only (100%). Three parameters were calculated on a per plate basis: (a) the signal-to-background ratio (S/B); (b) the coefficient for variation (CV; CV = (standard deviation/mean) × 100)) for all compound test wells; and (c) the Z’-factor. IC50 values were calculated by fitting normalized data to sigmoidal log versus response equation utilizing nonlinear regression analysis from GraphPad Prizm 8.

**Q.** O=C(CCN(Cc1ccccc1)S(=O)(=O)c1ccc(F)cc1)NO [Compound 162808] was tested. Which “cytotoxicity (effect on cell viability)” value did it give?
**A.** no cytotoxicity

— paper PMC8000592, “Discovery and Optimization of Selective Inhibitors of Meprin α (Part I)” (Pharmaceuticals, 2021)
